Source: US20140066369A1, “Modulators Of The GPR119 Receptor And The Treatment Of Disorders Related Thereto” (ARENA PHARMACEUTICALS, INC., priority 2011, published 2014)

Key:
[1] = target: T1, hGPR119 (Homo sapiens, UniProt Q8TDV5); test: HTRF assay for direct cAMP measurement in CHO-K1 cells stably expressing the GPR119 receptor; assay type: cell-based
T1 construct: expressed in transfected cells
T1 sequence (Q8TDV5 2-335): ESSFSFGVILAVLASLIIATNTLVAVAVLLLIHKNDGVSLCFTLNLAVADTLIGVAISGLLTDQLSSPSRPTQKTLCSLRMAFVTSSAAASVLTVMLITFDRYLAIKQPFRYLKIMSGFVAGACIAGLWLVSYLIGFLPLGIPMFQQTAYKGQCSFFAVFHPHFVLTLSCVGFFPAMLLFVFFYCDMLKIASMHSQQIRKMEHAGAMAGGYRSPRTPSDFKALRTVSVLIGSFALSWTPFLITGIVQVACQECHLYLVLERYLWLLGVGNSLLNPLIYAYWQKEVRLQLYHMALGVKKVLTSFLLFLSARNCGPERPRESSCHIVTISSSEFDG
Procedure: GPR119 agonists were evaluated in an HTRF® cAMP detection assay (Cisbio, cAMP Dynamic 2 Assay Kit; #62AM4PEJ) according to the manufacturer's instructions using CHO-K1 cells stably expressing the GPR119 receptor. CHO-K1 cells were transduced with a lentiviral vector encoding the nucleotide sequence of GPR119 (NCBI mRNA and protein reference sequences: NM_178471.2 & NP_848566). The N-terminus of the GPR119 nucleotide sequence was modified to replace the first, methionine-coding, codon with a nucleotide sequence coding for a standard, nine amino acid, hemagglutinin tag. Following transduction, cells expressing the GPR119 receptor were isolated and a single clone was isolated following standard dilution-cloning procedures. On the day of the assay, cultured CHO-GPR119 cells were harvested, suspended in assay buffer and plated into 384-well assay plates (PerkinElmer® Proxiplate® #6008280) at a density of 2,000 cells per well. A cAMP standard curve was added to each plate. Test compounds were dissolved in DMSO, serially diluted in DMSO and then diluted in assay buffer before addition to the cells. Test compounds were evaluated in triplicate, using 10-point, 5-fold serial dilutions starting at 10 μM. The final DMSO concentration in the assay was 0.5%. Compounds and cells were incubated for 1 h at room temperature and then detection reagents were added to each well (cAMP-D2 in cell lysis buffer, followed by europium cryptate-labeled anti-cAMP antibody). Plates were then incubated at room temperature for 1 h prior to reading. Time-resolved fluorescence measurements were collected on PerkinElmer Envision™ or BMG Pherastar™ microplate readers. The compound N-(2-fluoro-4-(methylsulfonyl) phenyl)-6-(4-(3-isopropyl-1,2,4-oxadiazol-5-yl)piperidin-1-yl)-5-nitropyrimidin-4-amine was used as a positive control in each runset while assay buffer containing 0.5% DMSO was used as the negative control. The HTRF® assay was used to determine EC50 values for GPR119 agonists.

[2] = test system: male 129SVE mice; test: Oral glucose tolerance test (oGTT), glucose homeostasis in male 129SVE mice; assay type: in vivo
Procedure: Male 129SVE mice (approximately 8 weeks old) were fasted for 18 h and randomly grouped (n=6) to receive a GPR119 agonist (Compound 17) at 3 or 10 mg/kg (mg/kg body weight). The compound was delivered orally via a gavage needle (p.o., 4 mL/kg) 30 minutes prior to glucose bolus (3 g/kg) (time=−30 min in FIG. 1), with a separate group receiving vehicle (20% hydroxypropyl-beta-cyclodextrin (HPCD)) as control. At time 0 min the glucose bolus was administered. Levels of blood glucose were assessed using a glucometer (One-Touch Ultra™, LifeScan) at time −30 min (prior to compound administration), at 0 min (at time when glucose bolus was given), and at 20, 40, 60, 120 min post glucose bolus. Plasma glucose levels (Table B) and the glucose excursion curve (FIG. 1) are shown. The reduction in the glucose excursion area under the curve (AUC) from −30 to 120 min in GPR119 agonist-treated animals relative to vehicle is shown in FIG. 2.

[3] = test system: male 129SVE mice; test: GIP release in male 129SVE mice (plasma total GIP, ELISA); assay type: in vivo; details: 3 or 30 mg/kg p.o.; blood sample after 45 min
Procedure: Male 129SVE mice (approximately 8 weeks old) were fasted for 18 h and randomly grouped (n=6) to receive a GPR119 agonist (Compound 17) at 3 or 30 mg/kg. Compound 17 was delivered orally via a gavage needle (p.o., 4 mL/kg), and after 45 min a blood sample was collected to determine plasma total GIP levels. A separate control group received vehicle (PET (80% PEG: 10% Ethanol: 10% Tween80™)). Plasma GIP levels were determined using a GIP (total) ELISA kit from Millipore.

## CN(C)C(=O)c1ccc(OC[C@H]2CC[C@H](N3CCN(C(=O)OC(C)(C)C)CC3)CC2)c(F)c1 [Compound 38, tert-Butyl 4-((1r,4r)-4-((4-(dimethylcarbamoyl)-2-fluorophenoxy)methyl)cyclohexyl)piperazine-1-carboxylate]
[1]
  EC50: 219 nM

## CCc1cnc(N2CCN([C@H]3CC[C@H](COc4ccc(S(C)(=O)=O)cc4)CC3)CC2)nc1 [Compound 5, 5-Ethyl-2-(4-((1r,4r)-4-((4-(methylsulfonyl)phenoxy)methyl)cyclohexyl)piperazin-1-yl)pyrimidine]
[1]
  EC50: 106 nM

## Cc1nc(S(C)(=O)=O)ccc1OC[C@H]1CC[C@H](N2CCN(c3ncc(C(F)(F)F)cn3)C[C@@H]2C)CC1 [Compound 26, 2-((S)-3-Methyl-4-((1r,4S)-4-((2-methyl-6-(methylsulfonyl)pyridin-3-yloxy)methyl)cyclohexyl)piperazin-1-yl)-5-(trifluoromethyl)pyrimidine]
[1]
  EC50: 600 nM

## CS(=O)(=O)c1ccc(OC[C@H]2CC[C@H](N3CCN(c4ncc(Cl)cn4)CC3)CC2)c(F)c1 [Compound 17, 5-Chloro-2-(4-((1r,4r)-4-((2-fluoro-4-(methylsulfonyl)phenoxy)methyl)cyclohexyl)piperazin-1-yl)pyrimidine]
[2]; 3 mg/kg p.o., 20 min post glucose bolus
  Plasma Glucose, Mean: 263.5 mg/dL
[2]; 3 mg/kg p.o., 40 min post glucose bolus
  Plasma Glucose, Mean: 304.8333 mg/dL
[2]; 3 mg/kg p.o., 60 min post glucose bolus
  Plasma Glucose, Mean: 247.6667 mg/dL
[2]; 3 mg/kg p.o., 120 min post glucose bolus
  Plasma Glucose, Mean: 166.3333 mg/dL
[2]; 3 mg/kg p.o., time relative to glucose bolus 0 min
  Plasma Glucose, Mean: 88.0 mg/dL
[2]; 3 mg/kg p.o., time relative to glucose bolus −30 min (prior to compound administration), oGTT, glucose 3 g/kg
  Plasma Glucose, Mean: 67.33 mg/dL
[2]; 10 mg/kg p.o., 20 min post glucose bolus
  Plasma Glucose, Mean: 203.8333 mg/dL
[2]; 10 mg/kg p.o., 40 min post glucose bolus
  Plasma Glucose, Mean: 234.8333 mg/dL
[2]; 10 mg/kg p.o., 60 min post glucose bolus
  Plasma Glucose, Mean: 186.1667 mg/dL
[2]; 10 mg/kg p.o., 120 min post glucose bolus
  Plasma Glucose, Mean: 167.3333 mg/dL
[2]; 10 mg/kg p.o., time relative to glucose bolus 0 min
  Plasma Glucose, Mean: 96.33 mg/dL
[2]; 10 mg/kg p.o., time relative to glucose bolus −30 min (prior to compound administration), oGTT, glucose 3 g/kg
  Plasma Glucose, Mean: 68.5 mg/dL
[2]; 3 or 10 mg/kg p.o., 30 minutes prior to glucose bolus, relative to vehicle
  Effect on blood glucose after challenge with glucose: lowered blood glucose
[3]
  Effect on GIP release (plasma total GIP): stimulated the release of GIP
[1]
  EC50: 51.8 nM

## C[C@@H]1CN(c2ncc(Cl)cn2)CCN1[C@H]1CC[C@H](COc2ccc(S(C)(=O)=O)cc2F)CC1 [Compound 31, 5-Chloro-2-((R)-4-((1r,4R)-4-((2-fluoro-4-(methylsulfonyl)phenoxy)methyl)cyclohexyl)-3-methylpiperazin-1-yl)pyrimidine]
[1]
  EC50: 70.1 nM

## CS(=O)(=O)c1ccc(OC[C@H]2CC[C@H](N3CCN(c4nc(C(F)(F)F)no4)CC3)CC2)c(F)c1 [Compound 64, 5-(4-((1r,4r)-4-((2-Fluoro-4-(methylsulfonyl)phenoxy)methyl)cyclohexyl)piperazin-1-yl)-3-(trifluoromethyl)-1,2,4-oxadiazole]
[1]
  EC50: 13.7 nM

## C[C@@H](OC(=O)N1CCN([C@H]2CC[C@H](COc3ccc(-n4cnnn4)cc3F)CC2)CC1)C(F)(F)F [Compound 44, (R)-1,1,1-Trifluoropropan-2-yl 4-((1r,4R)-4-((2-fluoro-4-(1H-tetrazol-1-yl)phenoxy)methyl)cyclohexyl) piperazine-1-carboxylate]
[1]
  EC50: 22.2 nM

## N#Cc1ccc(OC[C@H]2CC[C@H](N3CCN(c4ncc(C(F)(F)F)cn4)CC3)CC2)cc1 [Compound 23, 4-(((1r,4r)-4-(4-(5-(Trifluoromethyl)pyrimidin-2-yl)piperazin-1-yl)cyclohexyl)methoxy) benzonitrile]
[1]
  EC50: 1380 nM
